The target in the experiment is Beta-lactamase (Pseudomonas aeruginosa, UniProt Q79MP6). Put plainly: IMP-1 metallo-beta-lactamase inhibitors, dose response, selectivity assay for VIM-2 inhibitor project, biochemical, epi-absorbance (AID 1920).

Each structure is given as a SMILES string.

Chain of Beta-lactamase (Q79MP6 whole entry): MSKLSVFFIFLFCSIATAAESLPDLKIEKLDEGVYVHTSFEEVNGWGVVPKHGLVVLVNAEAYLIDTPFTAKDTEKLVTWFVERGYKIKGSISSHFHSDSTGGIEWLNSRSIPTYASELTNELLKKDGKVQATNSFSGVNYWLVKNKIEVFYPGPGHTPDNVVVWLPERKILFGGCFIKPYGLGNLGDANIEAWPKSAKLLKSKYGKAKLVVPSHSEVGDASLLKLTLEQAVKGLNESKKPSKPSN

A word on the IC50: it is the concentration at which inhibition is half-maximal. The molecule `O=C1C(=O)N(Cc2cccnc2)C(c2ccccn2)C1C(=O)c1ccccc1` (configuration not stated) [(4Z)-4-[hydroxy(phenyl)methylene]-5-(2-pyridyl)-1-(3-pyridylmethyl)pyrrolidine-2,3-quinone] registered an IC50 above 59.6 µM.
In turn, `O=C1C(=O)N(Cc2cccnc2)C(c2ccccn2)C1C(=O)c1cccs1` (configuration not stated) [3-hydroxy-5-(2-pyridinyl)-1-(3-pyridinylmethyl)-4-(2-thienylcarbonyl)-1,5-dihydro-2H-pyrrol-2-one] displayed an IC50 above 59.6 µM.
The figure for `COc1ccc(OC)c(C2C(C(=O)c3ccco3)C(=O)C(=O)N2Cc2cccnc2)c1` (configuration not stated) [2-(2,5-dimethoxyphenyl)-3-(furan-2-carbonyl)-4-hydroxy-1-(pyridin-3-ylmethyl)-2H-pyrrol-5-one] is above 59.6 µM; for `COc1ccc(OC)c(C=NNC(=O)Cc2c(C)[nH][nH]c2=O)c1` [SMR000147372] it is above 59.6 µM; for `COc1ccc(C(=O)C2C(=O)C(=O)N(Cc3ccco3)C2c2cc(OC)ccc2OC)cc1` (configuration not stated) [(4E)-5-(2,5-dimethoxyphenyl)-1-(2-furanylmethyl)-4-[hydroxy-(4-methoxyphenyl)methylidene]pyrrolidine-2,3-dione] it is above 59.6 µM.
The molecule `O=C1C(=O)N(Cc2cccnc2)C(c2ccccn2)C1C(=O)c1ccc(F)cc1` (configuration not stated) [(4Z)-4-[(4-fluorophenyl)-hydroxy-methylene]-5-(2-pyridyl)-1-(3-pyridylmethyl)pyrrolidine-2,3-quinone] returned an IC50 above 59.6 µM.
The figure for `COc1cc(OC)c(OC)cc1C=NNC(=O)Cc1c(C)[nH][nH]c1=O` [MLS000555854] is above 59.6 µM.

Source of the values: BindingDB's records for doi:10.7270/Q2SF2TM0 (The Scripps Research Institute Molecular Screening Center, 2009).
